From patent US4560509A, “Antibiotic A39079 factor S-1” (Eli Lilly and Company, priority 1983, dated 1985)
In brackets after ≈: the same amount, converted by molar mass.

Columns and labels:
[1] = test system: Haemophilus influenzae C.L.; test: standard agar-dilution MIC assay; assay type: cell-based
Source text: (§1) Table V summarizes the minimal inhibitory concentrations (MIC) at which factor S-1 inhibits certain organisms as determined by standard agar-dilution assays. In Table V, the activity of factor S-1 is compared with that of rifampin.

[2] = test system: Staphylococcus epidermidis EPI1; test: standard agar-dilution MIC assay; assay type: cell-based
Source text: as §1

[3] = test system: Enterobacter aerogenes C32; test: standard agar-dilution MIC assay; assay type: cell-based; conditions: Klebsiella aerogenes; agar dilution; Enterobacter aerogenes C32; read-out: MIC
Source text: as §1

Escherichia coli EC14 = test: standard agar-dilution MIC assay; assay type: cell-based
Source text: as §1

[4] = test system: Klebsiella pneumoniae X68; test: standard agar-dilution MIC assay; assay type: cell-based; conditions: agar dilution; Klebsiella pneumoniae X68; read-out: MIC
Source text: as §1

Proteus morganii PR15 = test: standard agar-dilution MIC assay; assay type: cell-based; conditions: Morganella morganii; agar dilution; Proteus morganii PR15; read-out: MIC
Source text: as §1

[5] = test system: Pseudomonas aeruginosa X239; test: standard agar-dilution MIC assay; assay type: cell-based; conditions: agar dilution; Pseudomonas aeruginosa X239; read-out: MIC
Source text: as §1

[6] = test system: Haemophilus influenzae 76; test: standard agar-dilution MIC assay; assay type: cell-based
Source text: as §1

Escherichia coli N10 = test: standard agar-dilution MIC assay; assay type: cell-based
Source text: as §1

Salmonella typhi X514 = test: standard agar-dilution MIC assay; assay type: cell-based; conditions: Salmonella enterica
Source text: as §1

[7] = test system: Staphylococcus epidermidis 222; test: standard agar-dilution MIC assay; assay type: cell-based; conditions: agar dilution; Staphylococcus epidermidis 222; read-out: MIC
Source text: as §1

Serratia marcescens X99 = test: standard agar-dilution MIC assay; assay type: cell-based; conditions: agar dilution; Serratia marcescens X99; read-out: MIC
Source text: as §1

[8] = test system: Citrobacter freundii CF17; test: standard agar-dilution MIC assay; assay type: cell-based; conditions: agar dilution; Citrobacter freundii CF17; read-out: MIC
Source text: as §1

[9] = test system: Acinetobacter calcoaceticus AC12; test: standard agar-dilution MIC assay; assay type: cell-based
Source text: as §1

[10] = test system: Enterobacter cloacae 265A; test: standard agar-dilution MIC assay; assay type: cell-based; conditions: agar dilution; Enterobacter cloacae 265A; read-out: MIC
Source text: as §1

[11] = test system: Streptococcus pneumoniae Park 1; test: standard agar-dilution MIC assay; assay type: cell-based; conditions: PARK1; agar dilution; Streptococcus pneumoniae Park 1; read-out: MIC
Source text: as §1

Enterobacter cloacae EB5 = test: standard agar-dilution MIC assay; assay type: cell-based; conditions: agar dilution; Enterobacter cloacae EB5; read-out: MIC
Source text: as §1

Salmonella typhi 1335 = test: standard agar-dilution MIC assay; assay type: cell-based; conditions: Salmonella enterica
Source text: as §1

[12] = test system: Streptococcus faecium ATCC 9790; test: standard agar-dilution MIC assay; assay type: cell-based; conditions: Enterococcus faecium, ATCC9790; agar dilution; Streptococcus faecium ATCC 9790; read-out: MIC
Source text: as §1

[13] = test system: Staphylococcus aureus S13E; test: standard agar-dilution MIC assay; assay type: cell-based
Source text: as §1

Escherichia coli TEM = test: standard agar-dilution MIC assay; assay type: cell-based
Source text: as §1

Proteus rettgeri C24 = test: standard agar-dilution MIC assay; assay type: cell-based; conditions: Providencia rettgeri; agar dilution; Proteus rettgeri C24; read-out: MIC
Source text: as §1

Serratia marcescens SE3 = test: standard agar-dilution MIC assay; assay type: cell-based; conditions: agar dilution; Serratia marcescens SE3; read-out: MIC
Source text: as §1

[14] = test system: Klebsiella pneumoniae X26; test: standard agar-dilution MIC assay; assay type: cell-based; conditions: agar dilution; Klebsiella pneumoniae X26; read-out: MIC
Source text: as §1

[15] = test system: Klebsiella pneumoniae KAE; test: standard agar-dilution MIC assay; assay type: cell-based; conditions: agar dilution; Klebsiella pneumoniae KAE; read-out: MIC
Source text: as §1

Proteus inconstans PR33 = test: standard agar-dilution MIC assay; assay type: cell-based; conditions: Providencia alcalifaciens; agar dilution; Proteus inconstans PR33; read-out: MIC
Source text: as §1

solubility = assay type: physicochemical
[16] = test system: bacteria normally present in the monogastric digestive system; test: glucose sparing / feed-utilization efficiency in monogastric animals; conditions: statement in words
Source text: Yet another important property of factor S-1 is its ability to improve feed-utilization efficiency in monogastric animals. Commercially important monograstric animals include chickens and pigs. In addition, young ruminants, especially those still unweaned, function as monogastric animals. In the monogastric animal, bacteria and the host compete for nutrients in the digestive process. Agents which cause the bacteria to use less efficient substrates, leaving more efficient substrates such as glucose for the host animal, increase the feed-utilization efficiency of the host animal.

titration = assay type: physicochemical; conditions: 66% aqueous dimethylformamide
rumen flora = test: ruminant feed-utilization activity (VFA and methane production in treated vs control flasks); assay type: cell-based
Source text: Animals having a developed rumen function utilize feed by first degrading the carbohydrate (the main nutritive portion) to pyruvate. The pyruvate is further metabolized to volatile fatty acid (VFA) derivatives, which include acetate, propionate and butyrate. It is known that the efficiency of carbohydrate utilization in ruminants is increased by treatments which stimulate the animals' rumen flora to produce propionate compounds rather than acetate or butyrate compounds. Feed-utilization efficiency can also be improved by inhibiting methane production. When methane gas is produced in the rumen, it is generally lost through eructation. This energy loss can be minimized by inhibiting methane formation.

`CC(=O)OC1C(C)C(O)C=COC2(C)Oc3c(C)c(O)c4c(c3C2=O)C(=O)C(C)=C(NC(=O)C=CC=CC(C)C(O)C(C)C(O)C1C)C4=O` (stereo not drawn) [Factor S-1] gave an MIC [1] of 0.25 µg/mL (≈ 0.367 µM), an MIC [2] of less than 0.008 µg/mL and an MIC [3] of 16 µg/mL (≈ 23.5 µM). It also gave an MIC (Escherichia coli EC14) of 16 µg/mL (≈ 23.5 µM), an MIC [4] of 16 µg/mL (≈ 23.5 µM) and an MIC (Proteus morganii PR15) of 8 µg/mL (≈ 11.7 µM). The MIC [5] was 16 µg/mL (≈ 23.5 µM), the MIC [6] was 0.125 µg/mL (≈ 0.183 µM) and the MIC (Escherichia coli N10) was 8 µg/mL (≈ 11.7 µM). The MIC (Salmonella typhi X514) was 32 µg/mL (≈ 46.9 µM), the MIC [7] was less than 0.008 µg/mL and the MIC (Serratia marcescens X99) was 32 µg/mL (≈ 46.9 µM). For the same compound, the MIC [8] was 16 µg/mL (≈ 23.5 µM), the MIC [9] was 2 µg/mL (≈ 2.93 µM) and the MIC [10] was 32 µg/mL (≈ 46.9 µM). The MIC [11] was less than 0.008 µg/mL, the MIC (Enterobacter cloacae EB5) was 32 µg/mL (≈ 46.9 µM) and the MIC (Salmonella typhi 1335) was 32 µg/mL (≈ 46.9 µM). For the same compound, the MIC [12] was 1 µg/mL (≈ 1.47 µM), the MIC [13] was 0.015 µg/mL (≈ 0.022 µM) and the MIC (Escherichia coli TEM) was greater than 128 µg/mL. For the same compound, the MIC (Proteus rettgeri C24) was 2 µg/mL (≈ 2.93 µM), the MIC (Serratia marcescens SE3) was 16 µg/mL (≈ 23.5 µM) and the MIC [14] was 32 µg/mL (≈ 46.9 µM). For the same compound, the MIC [15] was 16 µg/mL (≈ 23.5 µM), the MIC (Proteus inconstans PR33) was 8 µg/mL (≈ 11.7 µM) and the solubility (solubility; solvents such as methanol, acetonitrile and acetone) was “soluble”. For the same compound, the solubility (solubility; water) was “only slightly soluble”, the “effect on consumption of glucose by bacteria (glucose sparing)” value [16] was “prevents the consumption of glucose by bacteria normally present in the monogastric digestive system” and the pKa (titration) was 8. For the same compound, the “Ratio of Treated to Control, Molar Percent, acetic” value (“Ratio … Molar Percent, acetic” below) (rumen flora; dose 0.5 ppm) was 1.04, the “Ratio of Treated to Control, Molar Percent, butyric” value (“Ratio … Molar Percent, butyric” for short) (rumen flora; dose 0.5 ppm) was 0.57 and the “Ratio of Treated to Control, Molar Percent, propionic” value (shortened to “Ratio … Molar Percent, propionic”) (rumen flora; dose 0.5 ppm) was 1.29. For the same compound, the “Ratio of Treated to Control, mMoles/Day, Total VFA” value (from here on “Ratio … mMoles/Day, Total VFA”) (rumen flora; dose 0.5 ppm) was 1.18, the “Ratio of Treated to Control, mMoles/Day, acetic” value (from here on “Ratio … mMoles/Day, acetic”) (rumen flora; dose 0.5 ppm) was 1.22 and the “Ratio of Treated to Control, mMoles/Day, butyric” value (shortened to “Ratio … mMoles/Day, butyric”) (rumen flora; dose 0.5 ppm) was 0.67. The “Ratio of Treated to Control, mMoles/Day, methane” value (“Ratio … mMoles/Day, methane” for short) (rumen flora; dose 0.5 ppm) was 1.03, the “Ratio of Treated to Control, mMoles/Day, propionic” value (“Ratio … mMoles/Day, propionic” below) (rumen flora; dose 0.5 ppm) was 1.52 and the “Ratio … Molar Percent, acetic” value (rumen flora; dose 1 ppm) was 1.05. For the same compound, the “Ratio … Molar Percent, butyric” value (rumen flora; dose 1 ppm) was 0.48, the “Ratio … Molar Percent, propionic” value (rumen flora; dose 1 ppm) was 1.49 and the “Ratio … mMoles/Day, Total VFA” value (rumen flora; dose 1 ppm) was 1.22. For the same compound, the “Ratio … mMoles/Day, acetic” value (rumen flora; dose 1 ppm) was 1.27, the “Ratio … mMoles/Day, butyric” value (rumen flora; dose 1 ppm) was 0.59 and the “Ratio … mMoles/Day, methane” value (rumen flora; dose 1 ppm) was 0.98. The “Ratio … mMoles/Day, propionic” value (rumen flora; dose 1 ppm) was 1.75, the “Ratio … Molar Percent, acetic” value (rumen flora; dose 2 ppm) was 1.08 and the “Ratio … Molar Percent, butyric” value (rumen flora; dose 2 ppm) was 0.43. For the same compound, the “Ratio … Molar Percent, propionic” value (rumen flora; dose 2 ppm) was 1.55, the “Ratio … mMoles/Day, Total VFA” value (rumen flora; dose 2 ppm) was 1.06 and the “Ratio … mMoles/Day, acetic” value (rumen flora; dose 2 ppm) was 1.15. For the same compound, the “Ratio … mMoles/Day, butyric” value (rumen flora; dose 2 ppm) was 0.46, the “Ratio … mMoles/Day, methane” value (rumen flora; dose 2 ppm) was 1.09 and the “Ratio … mMoles/Day, propionic” value (rumen flora; dose 2 ppm) was 1.63. For the same compound, the “Ratio … Molar Percent, acetic” value (rumen flora; dose 5 ppm) was 1.07, the “Ratio … Molar Percent, butyric” value (rumen flora; dose 5 ppm) was 0.62 and the “Ratio … Molar Percent, propionic” value (rumen flora; dose 5 ppm) was 1.30. The “Ratio … mMoles/Day, Total VFA” value (rumen flora; dose 5 ppm) was 1.07, the “Ratio … mMoles/Day, acetic” value (rumen flora; dose 5 ppm) was 1.16 and the “Ratio … mMoles/Day, butyric” value (rumen flora; dose 5 ppm) was 0.66. For the same compound, the “Ratio … mMoles/Day, methane” value (rumen flora; dose 5 ppm) was 0.50, the “Ratio … mMoles/Day, propionic” value (rumen flora; dose 5 ppm) was 1.39 and the “feed-utilization efficiency in ruminants” value (rumen flora; statement in words) was “improve feed-utilization efficiency in ruminants”.
